Data as given in US11344523B2, “Composition for use in treating rotavirus infection” (Devenish Nutrition Limited, priority 2016, dated 2022).

Experiments:
[1] = system: Porcine Rotavirus; assay: Virucidal effect on porcine rotavirus in primary pig kidney cells; format: cell-based; conditions: total carboxylic acid concentration of 200 mM; for Result Replicate 2: controls PBS −5, ETHANOL −4; for Result Replicate 3: controls PBS −5, ETHANOL −5
Protocol: (§1) Carboxylic acids were obtained from David Garnett of Pathway Intermediates Ltd or from Sigma-Aldrich Co. LLC; and compositions were prepared in a Class II cabinet at room temperature in Hank's Balanced Salt Solution (Thermo Fisher Scientific Inc.) or ethanol by vortexing strongly to emulsify at a stock concentration of 1M. Stock concentrations were diluted to working concentrations e.g. of […] by serial dilution using Minimum Essential Medium (MEM) cell culture medium (Thermo Fisher Scientific Inc.) containing 2 mM L-Glutamine (Gibco Life Technologies Ltd.), and 100 μg/500 ml gentamycin (Lonza Group Ltd.).
A primary pig kidney (PPK) cell line was sourced from a kidney of a sacrificed piglet from the Agri-Food and Biosciences Institute (AFBI Hillsborough, UK). The kidney tissue was trypsinised to create a PPK cell line, which was maintained in Minimum Essential Medium (MEM) cell culture medium (Thermo Fisher Scientific Inc.) containing 2 mM L-Glutamine (Gibco Life Technologies Ltd.), 10% foetal calf serum (PAN-Biotech GmbH), and 100 μg/500 ml gentamycin (Lonza Group Ltd.).
(§2) In general, cells were seeded as at a density of 0.313e4-5.000e4 cells per 1 ml of cell suspension in growth medium, dispensed in to a SPL 24-Well Cell Culture Plate (SPL Life Sciences Co., Ltd.) in replicates of 3, each containing Academy Circular Cover Slips (Academy Science) and incubated overnight at 37° C. at 5% CO2. The growth medium was removed and replaced with 1 ml of Minimum Essential Medium (MEM) cell culture medium (Thermo Fisher Scientific Inc.) containing 2 mM L-Glutamine (Gibco Life Technologies Ltd.), and 100 μg/500 ml gentamycin (Lonza Group Ltd.) for treatment.
(§3) Porcine rotavirus was PROSYSTEM® ROTA PORCINE ROTAVIRUS VACCINE (Merck Animal Health).
Prior to treatment, the cells and coverslips were washed three times with Minimum Essential Medium (MEM) cell culture medium (Thermo Fisher Scientific Inc.) containing 2 mM L-Glutamine (Gibco Life Technologies Ltd.), and 100 μg/500 ml gentamycin (Lonza Group Ltd.). 100 μl of the virus at a titre of 10^9 TCID50/100 μl by the Reed-Muench method, and 100 μl of the treatment samples, were incubated for 30 mins at 37° C. at 5% CO2 The reaction was stopped by adding 800 μl of Minimum Essential Medium (MEM) cell culture medium (Thermo Fisher Scientific Inc.) containing 2 mM L-Glutamine (Gibco Life Technologies Ltd.), and 100 μg/500 ml gentamycin (Lonza Group Ltd.). Each treatment/virus was titrated out, initially 100 μl of each treatment was added to 900 μls of Minimum Essential Medium (MEM) cell culture medium (Thermo Fisher Scientific Inc.) containing 2 mM L-Glutamine (Gibco Life Technologies Ltd.), and 100 μg/500 ml gentamycin (Lonza Group Ltd.) to prepare a 10^−1 dilution. The 10^−1 dilution was then diluted in serial dilutions down to 10^−6 in the same medium 100 μl of media was then added to each appropriate well in replicates of 3 and incubated for 36 hours at 37° C. at 5% CO2 Ethanol or PBS were used as control treatments. Untreated cells were used as negative controls.
After incubation, coverslips were harvested. Each slip was harvested by lifting out of the medium with forceps then rinsing and fixing by dipping sequentially into glass universal bottles of PBS, acetone, and lastly acetone. The slip was then placed cells side up in a glass Petri dish of acetone in a Class II cabinet at room temperature for 10 minutes. […]

[2] = system: Porcine Respiratory and Reproductive Syndrome Virus (PRRSV); assay: Virucidal effect on PRRSV, virus/treatment titration read by immunofluorescence; format: cell-based; conditions: 200 mM
Protocol: as §1
MARC145 cells were obtained from the Centre of Cell Cultures, Istituto Zooprofilattico Sperimentale Brescia, Italy and were maintained in Minimum Essential Medium (MEM) cell culture medium (Thermo Fisher Scientific Inc.) containing 2 mM L-Glutamine (Gibco Life Technologies Ltd.), 10% foetal calf serum (PAN-Biotech GmbH), and 100 μg/500 ml gentamycin (Lonza Group Ltd.).
(§4) In general, cells were seeded as at a density of 0.313e4-5.000e4 cells per 1 ml of cell suspension in growth medium, dispensed in to a SPL 24-Well Cell Culture Plate (SPL Life Sciences Co., Ltd.) in replicates of 3, each containing Academy Circular Cover Slips (Academy Science) and incubated overnight at 37° C. at 5% CO2. […]

[3] = system: infectious bovine rhinotracheitis virus (IBRV); assay: Virucidal effect on IBRV, virus/treatment titration read by immunofluorescence; format: cell-based, Infectious bovine rhinotracheitis virus (Bovine Herpes 1); conditions: 100 mM
Protocol: as §1
MDBK cells were obtained from ECACC and were maintained in Minimum Essential Medium (MEM) cell culture medium (Thermo Fisher Scientific Inc.) containing 2 mM L-Glutamine (Gibco Life Technologies Ltd.), 10% foetal calf serum (PAN-Biotech GmbH), 100 μg/500 ml gentamycin (Lonza Group Ltd.), and 1% essential non essential amino acids (Sigma-Aldrich Co. LLC.).
as §4

[4] = system: porcine circovirus (PCV2); assay: Virucidal effect on PCV2 in PK15A cells; format: cell-based, Porcine circovirus type 2; conditions: at either 100 or 200 mM
[5] = system: Porcine Rotavirus; assay: Virucidal effect on porcine rotavirus in MA104 cells; format: cell-based; conditions: for Titre: incubation 30 mins, DMSO ✓, control titres ETOH −4, PBS −4
Protocol: as §1
MA104 cells were obtained from ECACC and were maintained in Minimum Essential Medium (MEM) cell culture medium (Thermo Fisher Scientific Inc.) containing 2 mM L-Glutamine (Gibco Life Technologies Ltd.), 10% foetal calf serum (PAN-Biotech GmbH), and 100 μg/500 ml gentamycin (Lonza Group Ltd.).
as §2, §3
Prior to treatment, the cells and coverslips were washed three times with Minimum Essential Medium (MEM) cell culture medium (Thermo Fisher Scientific Inc.) containing 2 mM L-Glutamine (Gibco Life Technologies Ltd.), and 100 μg/500 ml gentamycin (Lonza Group Ltd.). […]

Structure (SMILES) | Result Replicate 2 [1] | Result Replicate 3 [1] | reduction in titre [2] | reduction in titre [3] | susceptibility of virus to treatment [4] | reduction in titre ([5]; 200 mM) | Titre ([5]; Expt 1, FA conc 100 mM) | Titre ([5]; Expt 2, FA conc 200 mM)
CCCCCCCC(=O)O [Octanonic Acid/Caprylic C8 (1M), octanoic acid] | −2 | −1 | – | – | – | – | – | –
CCCC(=O)O [Butyric Acid C4 (1M), Butyric Acid] | −ve | −ve | – | – | – | – | – | –
CCCCCCCCCC(=O)O [Decanoic Acid/Capric C10 (1M), Decanoic Acid] | −1 | −ve | – | – | – | – | – | –
CCCC(=O)[O-].[Na+] [Treatment A, Sodium butyrate] | – | – | 3.5 log10 | 4 log10 | not susceptible | 2 log 10 | −4 | −2
CCCCCCCCCCCC(=O)O [Dodecanoic acid/Lauric C12 (1M), Dodecanoic acid] | −ve | −1 | – | – | – | – | – | –
